These results are taken from PMC6757289, “Design and Characterization of SGK3-PROTAC1, an Isoform Specific SGK3 Kinase PROTAC Degrader” (ACS Chemical Biology, 2019).

Read-outs that look alike come from different tables or passages of the source.

Common to all, as to assay: kinase profiling panel
Common to all, as to type: biochemical
Holding throughout (details): read-out: % Activity Remaining

The target in one experiment is MPSK1 (Homo sapiens, UniProt O75716). An excerpt: (§1) Protein kinase profiling against a Dundee panel of 140 protein kinases was undertaken at the International Centre for Protein Kinase Profiling. The result for each kinase was presented as a mean kinase activity of the reaction taken in triplicate relative to a control sample treated with DMSO. Assay conditions and abbreviations are available at http://www.kinase-screen.mrc.ac.uk.

The next experiment has as its target TESK1 (Homo sapiens, UniProt Q15569).
Description: as §1

Another experiment has as its target T1, EPH-B1 (Homo sapiens, UniProt P54762).
T1 sequence (P54762 18-984): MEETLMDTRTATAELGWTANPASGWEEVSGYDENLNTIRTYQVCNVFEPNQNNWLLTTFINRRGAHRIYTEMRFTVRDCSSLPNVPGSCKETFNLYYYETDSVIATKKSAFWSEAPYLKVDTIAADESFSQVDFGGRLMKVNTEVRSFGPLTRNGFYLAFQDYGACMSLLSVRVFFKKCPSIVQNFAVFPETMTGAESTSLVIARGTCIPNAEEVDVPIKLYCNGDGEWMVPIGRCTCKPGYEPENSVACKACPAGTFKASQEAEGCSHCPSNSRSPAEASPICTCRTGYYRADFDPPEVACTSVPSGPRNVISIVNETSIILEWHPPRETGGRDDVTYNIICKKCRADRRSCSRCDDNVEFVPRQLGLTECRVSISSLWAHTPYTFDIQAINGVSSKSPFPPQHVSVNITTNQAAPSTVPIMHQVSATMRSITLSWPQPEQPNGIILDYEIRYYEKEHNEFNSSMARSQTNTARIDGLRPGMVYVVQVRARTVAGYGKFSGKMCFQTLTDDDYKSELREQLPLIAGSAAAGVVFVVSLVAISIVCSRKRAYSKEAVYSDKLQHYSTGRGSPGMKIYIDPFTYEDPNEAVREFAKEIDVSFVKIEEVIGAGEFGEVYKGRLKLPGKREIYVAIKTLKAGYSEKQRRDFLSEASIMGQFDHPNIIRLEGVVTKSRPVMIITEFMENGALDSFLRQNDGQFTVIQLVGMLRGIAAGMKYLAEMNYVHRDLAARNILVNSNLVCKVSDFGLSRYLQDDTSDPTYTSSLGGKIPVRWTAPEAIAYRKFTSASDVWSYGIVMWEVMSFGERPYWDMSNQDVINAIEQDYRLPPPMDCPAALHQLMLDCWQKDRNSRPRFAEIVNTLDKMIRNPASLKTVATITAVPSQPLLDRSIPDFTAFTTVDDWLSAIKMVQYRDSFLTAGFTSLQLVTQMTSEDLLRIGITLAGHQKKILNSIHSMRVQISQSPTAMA
Description: as §1

The target in a further experiment is T2, BRSK2 (Homo sapiens, UniProt Q8IWQ3).
T2 sequence (Q8IWQ3 1-736): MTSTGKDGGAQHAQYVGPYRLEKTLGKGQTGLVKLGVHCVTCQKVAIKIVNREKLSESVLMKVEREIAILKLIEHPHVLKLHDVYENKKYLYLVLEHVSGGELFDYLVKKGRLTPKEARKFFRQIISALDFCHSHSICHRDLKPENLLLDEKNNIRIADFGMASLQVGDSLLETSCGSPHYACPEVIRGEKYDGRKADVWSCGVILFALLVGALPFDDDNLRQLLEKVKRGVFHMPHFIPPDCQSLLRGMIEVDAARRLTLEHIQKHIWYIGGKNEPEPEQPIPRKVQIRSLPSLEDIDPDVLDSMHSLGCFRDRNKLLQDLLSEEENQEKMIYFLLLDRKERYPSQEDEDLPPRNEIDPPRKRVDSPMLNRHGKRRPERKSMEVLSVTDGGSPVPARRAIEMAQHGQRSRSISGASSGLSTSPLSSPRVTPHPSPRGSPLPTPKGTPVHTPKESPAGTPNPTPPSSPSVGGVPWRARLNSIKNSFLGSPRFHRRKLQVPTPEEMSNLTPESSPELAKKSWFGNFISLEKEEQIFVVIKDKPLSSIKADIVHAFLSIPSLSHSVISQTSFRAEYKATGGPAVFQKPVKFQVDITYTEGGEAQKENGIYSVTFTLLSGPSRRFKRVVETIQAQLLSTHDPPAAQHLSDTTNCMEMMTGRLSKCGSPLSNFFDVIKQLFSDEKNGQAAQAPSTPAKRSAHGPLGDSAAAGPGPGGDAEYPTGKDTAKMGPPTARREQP
Description: as §1

A further experiment concerns the target ERK2 (Homo sapiens, UniProt P28482).
Description: as §1

For the next experiment, the target named is T3, MAP4K3 (Homo sapiens, UniProt Q8IVH8).
T3 sequence (Q8IVH8 1-894): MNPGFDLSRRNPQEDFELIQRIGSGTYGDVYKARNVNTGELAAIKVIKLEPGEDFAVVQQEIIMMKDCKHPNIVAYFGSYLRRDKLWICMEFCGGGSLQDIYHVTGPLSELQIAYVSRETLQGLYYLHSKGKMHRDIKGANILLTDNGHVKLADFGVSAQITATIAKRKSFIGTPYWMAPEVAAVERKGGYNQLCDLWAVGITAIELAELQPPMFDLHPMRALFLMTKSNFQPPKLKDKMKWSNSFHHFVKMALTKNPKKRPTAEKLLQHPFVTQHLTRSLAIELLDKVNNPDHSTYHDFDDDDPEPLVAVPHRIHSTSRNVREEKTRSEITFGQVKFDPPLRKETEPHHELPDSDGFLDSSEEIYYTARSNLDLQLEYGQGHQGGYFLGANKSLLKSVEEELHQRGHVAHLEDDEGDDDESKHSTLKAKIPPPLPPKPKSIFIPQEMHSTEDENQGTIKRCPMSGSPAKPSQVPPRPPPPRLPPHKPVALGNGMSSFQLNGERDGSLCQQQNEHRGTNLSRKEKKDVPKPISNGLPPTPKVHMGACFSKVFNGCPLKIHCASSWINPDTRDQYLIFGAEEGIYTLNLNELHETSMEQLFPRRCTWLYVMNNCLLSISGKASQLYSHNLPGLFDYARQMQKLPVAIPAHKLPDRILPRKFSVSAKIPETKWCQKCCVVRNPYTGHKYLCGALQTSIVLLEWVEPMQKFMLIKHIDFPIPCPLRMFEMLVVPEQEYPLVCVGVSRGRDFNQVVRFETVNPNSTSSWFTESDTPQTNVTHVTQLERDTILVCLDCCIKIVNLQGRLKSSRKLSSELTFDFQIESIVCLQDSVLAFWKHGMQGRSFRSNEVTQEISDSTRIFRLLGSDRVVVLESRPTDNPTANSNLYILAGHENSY
Description: as §1

For the next experiment, the target named is MST3 (Homo sapiens, UniProt Q9Y6E0).
Description: as §1

Another experiment deals with MARK2 (Homo sapiens, UniProt Q7KZI7).
Description: as §1

Sequence of MPSK1 (O75716 whole entry): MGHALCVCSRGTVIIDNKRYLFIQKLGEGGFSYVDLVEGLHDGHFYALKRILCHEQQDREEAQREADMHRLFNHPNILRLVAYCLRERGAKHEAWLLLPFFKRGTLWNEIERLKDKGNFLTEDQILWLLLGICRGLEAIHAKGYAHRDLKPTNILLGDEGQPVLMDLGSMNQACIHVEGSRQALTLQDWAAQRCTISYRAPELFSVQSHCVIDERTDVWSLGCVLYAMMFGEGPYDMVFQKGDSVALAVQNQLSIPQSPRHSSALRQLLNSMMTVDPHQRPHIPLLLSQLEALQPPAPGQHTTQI
Sequence of TESK1 (Q15569 whole entry): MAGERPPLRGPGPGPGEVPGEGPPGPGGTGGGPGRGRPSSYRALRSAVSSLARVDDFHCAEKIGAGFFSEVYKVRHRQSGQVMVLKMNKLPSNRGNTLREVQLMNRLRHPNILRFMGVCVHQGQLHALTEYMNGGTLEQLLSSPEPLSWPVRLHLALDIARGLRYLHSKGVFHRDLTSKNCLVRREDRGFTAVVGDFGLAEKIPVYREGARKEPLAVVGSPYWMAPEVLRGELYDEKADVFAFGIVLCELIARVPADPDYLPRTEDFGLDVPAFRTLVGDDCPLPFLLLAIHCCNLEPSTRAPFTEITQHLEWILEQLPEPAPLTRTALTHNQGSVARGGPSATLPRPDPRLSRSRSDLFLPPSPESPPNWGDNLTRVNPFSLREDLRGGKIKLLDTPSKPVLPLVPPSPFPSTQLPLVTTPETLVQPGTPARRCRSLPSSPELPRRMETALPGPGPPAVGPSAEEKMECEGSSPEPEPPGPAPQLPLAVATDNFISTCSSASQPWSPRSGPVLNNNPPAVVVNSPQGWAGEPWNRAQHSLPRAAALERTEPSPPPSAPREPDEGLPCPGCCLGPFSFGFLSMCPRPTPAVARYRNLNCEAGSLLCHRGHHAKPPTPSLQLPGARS
Sequence of ERK2 (P28482 whole entry): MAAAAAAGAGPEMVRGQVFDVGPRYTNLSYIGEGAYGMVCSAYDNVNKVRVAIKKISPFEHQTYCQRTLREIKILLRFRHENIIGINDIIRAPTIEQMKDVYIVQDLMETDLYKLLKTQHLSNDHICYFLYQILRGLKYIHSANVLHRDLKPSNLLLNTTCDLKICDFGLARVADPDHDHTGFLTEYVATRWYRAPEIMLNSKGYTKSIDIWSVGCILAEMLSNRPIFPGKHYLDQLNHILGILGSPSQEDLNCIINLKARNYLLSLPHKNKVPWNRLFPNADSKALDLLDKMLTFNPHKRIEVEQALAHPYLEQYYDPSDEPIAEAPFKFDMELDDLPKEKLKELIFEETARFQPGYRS
Sequence of MARK2 (Q7KZI7 whole entry): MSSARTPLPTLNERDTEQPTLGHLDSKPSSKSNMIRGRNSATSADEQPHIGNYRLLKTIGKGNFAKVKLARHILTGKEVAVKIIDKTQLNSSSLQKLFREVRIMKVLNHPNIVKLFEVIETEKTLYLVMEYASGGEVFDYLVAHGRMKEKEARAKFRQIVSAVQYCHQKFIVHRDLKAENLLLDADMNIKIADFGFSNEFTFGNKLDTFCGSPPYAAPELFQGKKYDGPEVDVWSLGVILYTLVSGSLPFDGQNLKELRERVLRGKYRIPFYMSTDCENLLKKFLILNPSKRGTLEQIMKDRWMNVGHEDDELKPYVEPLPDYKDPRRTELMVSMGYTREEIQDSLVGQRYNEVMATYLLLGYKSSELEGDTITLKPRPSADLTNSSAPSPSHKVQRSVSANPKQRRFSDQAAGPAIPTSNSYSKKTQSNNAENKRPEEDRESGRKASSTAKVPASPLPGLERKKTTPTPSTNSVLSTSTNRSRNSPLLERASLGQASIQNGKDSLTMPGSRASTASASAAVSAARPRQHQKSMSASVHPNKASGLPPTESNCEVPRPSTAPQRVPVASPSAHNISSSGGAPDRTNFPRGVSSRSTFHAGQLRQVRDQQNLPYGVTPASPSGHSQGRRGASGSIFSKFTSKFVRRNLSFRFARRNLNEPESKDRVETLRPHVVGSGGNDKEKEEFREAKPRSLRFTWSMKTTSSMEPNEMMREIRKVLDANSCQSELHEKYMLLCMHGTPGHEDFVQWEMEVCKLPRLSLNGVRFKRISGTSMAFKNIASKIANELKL
Sequence of MST3 (Q9Y6E0 whole entry): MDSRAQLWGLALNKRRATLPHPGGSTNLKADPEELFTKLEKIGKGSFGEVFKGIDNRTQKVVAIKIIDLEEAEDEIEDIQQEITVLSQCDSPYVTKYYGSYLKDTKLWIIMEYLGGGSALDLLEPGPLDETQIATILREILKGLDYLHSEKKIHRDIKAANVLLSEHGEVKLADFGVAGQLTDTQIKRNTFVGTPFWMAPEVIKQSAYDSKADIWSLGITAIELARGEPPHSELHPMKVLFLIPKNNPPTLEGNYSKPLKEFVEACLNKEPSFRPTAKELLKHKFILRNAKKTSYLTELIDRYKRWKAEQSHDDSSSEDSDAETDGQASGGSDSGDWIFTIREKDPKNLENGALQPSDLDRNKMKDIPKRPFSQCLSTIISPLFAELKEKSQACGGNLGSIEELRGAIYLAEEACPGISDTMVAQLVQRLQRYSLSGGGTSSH

As for `COc1ccc(Cl)c(S(=O)(=O)Nc2ccc(-c3nc(OC[C@H]4CNCCO4)c4c(C)n[nH]c4n3)cc2)c1` [290-R, reference compound], the remaining activity at 1 µM on MPSK1 amounted to 82%; at TESK1, 77%; on EPH-B1 it was 117%; on BRSK2, 102%; on ERK2, 109%; on MAP4K3, 2%. Moreover, the values for the remaining activity at 1 µM on MST3 and at MARK2 were 57% and 113%, respectively.
`Cc1ccc(F)c(S(=O)(=O)Nc2ccc(-c3nc(OC[C@H]4CNCCO4)c4cn[nH]c4n3)cc2)c1` [308-R, reference compound]: the remaining activity at 1 µM at MPSK1 turned out to be 116%; on TESK1, 69%; on EPH-B1, 96%; at BRSK2, 82%; on ERK2, 110%; on MAP4K3, 8%. The remaining activity at 1 µM at MST3 was 79%; on MARK2, 94%.
On to `Cc1ccc(F)c(S(=O)(=O)Nc2ccc(-c3nc(OC[C@H]4CN(CCCCCCOCCOCCOCC(=O)N[C@H](C(=O)N5C[C@H](O)C[C@H]5C(=O)NCc5ccc(-c6scnc6C)cc5)C(C)(C)C)CCO4)c4cn[nH]c4n3)cc2)c1` [SGK3-PROTAC1], for which the remaining activity at 1 µM turned out to be 127% at MPSK1 (1 µM); 122% on TESK1 (1 µM); 100% on EPH-B1 (1 µM); 97% at BRSK2 (1 µM); 104% at ERK2 (1 µM); 99% at MAP4K3 (1 µM). In addition, the remaining activity at 1 µM on MST3 (1 µM) and on MARK2 (1 µM) was 102% throughout.
Consider `Cc1ccc(F)c(S(=O)(=O)Nc2ccc(-c3nc(OC[C@H]4CN(CCCCCCOCCOCCOCC(=O)N[C@H](C(=O)N5C[C@@H](O)C[C@H]5C(=O)NCc5ccc(-c6scnc6C)cc5)C(C)(C)C)CCO4)c4cn[nH]c4n3)cc2)c1` [cisSGK3-PROTAC1], for which the remaining activity at 1 µM on MPSK1 (1 µM) is 139%; at TESK1 (1 µM), 120%; at EPH-B1 (1 µM), 108%; at BRSK2 (1 µM), 101%; on ERK2 (1 µM), 95%; at MAP4K3 (1 µM), 95%. Further, the values for the remaining activity at 1 µM on MST3 (1 µM) and at MARK2 (1 µM) were 113% and 112%, respectively.

Broadly, the remaining activity is the signal under treatment as a percentage of the control signal.
